According to patent publication US20050217538A1, “Modified Calcium Phosphate Bone Cement” (TECHNISCHE UNIVERSITAT DRESDEN, priority 2004, published 2005):

Test: pH, calcium and phosphate contents of the solution surrounding the cement during the setting process
Type: physicochemical
Protocol: The ion concentrations of the solutions surrounding the cement were determined in that during the setting process samples of the solution were taken regularly and analyzed with regard to pH value (glass electrode), calcium contents and phosphate contents (photometric method), in accordance with the procedure described in connection with Example 2. No deviations into cell and tissue damaging pH ranges (pH<7 and pH>8) were measured. The determined calcium and phosphate ion concentrations were also at a level that is well tolerated by cells and tissue.
The ion concentrations of the solution surrounding the cement were determined in that during the setting process samples of the solution were taken regularly and analyzed with regard to pH value (glass electrode), calcium contents and phosphate contents (photometric method). […]
The ion concentration of the solution surrounding the bone cement was determined in that during the setting process regularly samples of the solution were taken and analyzed with regard to pH value (glass electrode), calcium contents and phosphate contents (photometric method). […] The determined calcium and phosphate ion concentrations were also at a level that is well tolerated by cells and tissue. […]

## Cc1ncc(C[n+]2csc(CCO[P@](=O)(O)OP(=O)(O)O)c2C)c(N)n1 [Thiamine pyrophosphate, thiamine pyrophosphate]
  calcium concentration of the surrounding medium: approximately 2.5 mmol/l
